Source: ChEMBL document CHEMBL5653633, “G1 cell cycle arrest and apoptosis are induced in NIH 3T3 cells by KN-93, an inhibitor of CaMK-II (the multifunctional Ca2+/CaM kinase)” (Cell Growth Differ, 1995)
Calls of active or inactive are those of the source. The calls are words filed in the database; no cut-off is given here.

Experiments:
NIH3T3 [1] = experiment: Induction of apoptosis in mouse NIH3T3 cells assessed as decreased cell viability in presence of terminal transferase and Fl-dUTP by TUNEL staining based fluorescence microscopy analysis; assay type: toxicity; settings: dose lower 10 µM, time lower 2 day, dose upper 24 µM, time upper 3 day
[2] = Inhibition of CAMK-II in mouse NIH3T3 cells assessed as growth inhibition incubated for 2 to 3 days by phase contrast microscopy analysis; assay type: cell-based
NIH3T3 [3] = experiment: Inhibition of CAMK-II in mouse NIH3T3 cells assessed as morphological changes at 10 to 24 uM incubated for 1 day in presence of fetal bovine serum by phase contrast microscopy analysis; assay type: cell-based; settings: dose 10-24 µM
NIH3T3 [4] = experiment: Inhibition of CAMK-II in mouse NIH3T3 cells assessed as accumulation of granules in presence of fetal bovine serum by phase contrast microscopy analysis; assay type: cell-based
NIH3T3 [5] = experiment: Inhibition of CAMK-II in mouse NIH3T3 cells assessed as decrease in cell count at 24 uM incubated for 2 to 3 days in presence of fetal bovine serum by phase contrast microscopy analysis; assay type: cell-based; settings: time 2-3 day
NIH3T3 [6] = experiment: Inhibition of CAMK-II in mouse NIH3T3 cells assessed as inhibition of cell growth at 4 to 8 uM incubated for 3 days by MTT assay; assay type: cell-based; settings: dose 4-8 µM, time 3.0 day
NIH3T3 [7] = experiment: Inhibition of CAMK-II in mouse NIH3T3 cells assessed as decrease in cell number at 16 to 24 uM incubated for 3 days by MTT assay; assay type: cell-based; settings: dose 16-24 µM, time 3.0 day
NIH3T3 [8] = experiment: Inhibition of CAMK-II in mouse NIH3T3 cells assessed as cell growth rate after compound rinsing at 4 to 16 uM incubated for 6 to 48 hrs by MTT assay; assay type: cell-based; settings: dose 4-16 µM, time 6-48 hrs
NIH3T3 [9] = experiment: Inhibition of CAMK-II in mouse NIH3T3 cells assessed as decrease in cell number by MTT assay; assay type: cell-based
[10] = (§1) Inhibition of CAMK-II in mouse NIH3T3 cells using autocamtide-2 as substrate […]; assay type: cell-based
NIH3T3 [11] = experiment: Induction of cell cycle arrest in mouse NIH3T3 cells assessed as accumulation of cells at G1 phase at 10 uM incubated for 1 day by propidium iodide staining based flow cytometry analysis (reference value: 54 %); assay type: toxicity; settings: nih3t3, 24 h
NIH3T3 [12] = experiment: Induction of cell cycle arrest in mouse NIH3T3 cells assessed as accumulation of cells at G1 phase at 10 uM incubated for 2 to 3 day by propidium iodide staining based flow cytometry analysis (reference value: 54 %); assay type: toxicity; settings: nih3t3, 10 µM, time 2-3 day
NIH3T3 [13] = experiment: Induction of cell cycle arrest in mouse NIH3T3 cells assessed as decreased accumulation of cells at S phase at 10 uM incubated for 1 to 3 days by propidium iodide staining based flow cytometry analysis; assay type: toxicity; settings: nih3t3, 10 µM, time 1-3 day
NIH3T3 [14] = experiment: Induction of cell cycle arrest in mouse NIH3T3 cells assessed as accumulation of cells at S phase at 10 uM incubated for 44 hrs followed by compound washout for 22 hrs by propidium iodide staining based flow cytometry analysis; assay type: toxicity; settings: nih3t3, 44 h
NIH3T3 [15] = experiment: Induction of cell cycle arrest in mouse NIH3T3 cells assessed as decreased accumulation of cells at G2 phase at 10 uM incubated for 1 to 3 days by propidium iodide staining based flow cytometry analysis; assay type: toxicity; settings: nih3t3, 10 µM, time 1-3 day
NIH3T3 [16] = experiment: Induction of cell cycle arrest in mouse NIH3T3 cells assessed as accumulation of cells at G2/M phase at 10 uM incubated for 44 hrs followed by compound washout for 22 hrs by propidium iodide staining based flow cytometry analysis; assay type: toxicity; settings: nih3t3, 44 h
NIH3T3 [17] = experiment: Induction of cell cycle arrest in mouse NIH3T3 cells assessed as accumulation of cells at G1 phase at 24 uM incubated for 3 days by propidium iodide staining based flow cytometry analysis; assay type: toxicity; settings: nih3t3, 72 h, time 3 day
NIH3T3 [18] = experiment: Induction of cell cycle arrest in mouse NIH3T3 cells assessed as accumulation of hypodiploid cells at 24 uM incubated for 3 days by propidium iodide staining based flow cytometry analysis; assay type: toxicity; settings: nih3t3, 72 h, time 3 day
NIH3T3 [19] = experiment: Cytotoxicity against PDGF-BB stimulated mouse NIH3T3 cells assessed as growth inhibition at 5 to 25 uM incubated for 72 hrs by MTT assay; assay type: functional, cell-based; settings: dose 5-25 µM
NIH3T3 [20] = experiment: Cytotoxicity against FGF stimulated mouse NIH3T3 cells assessed as growth inhibition at 5 to 25 uM incubated for 72 hrs by MTT assay; assay type: functional, cell-based; settings: dose 5-25 µM
NIH3T3 [21] = experiment: Cytotoxicity against EGF stimulated mouse NIH3T3 cells assessed as growth inhibition at 5 to 25 uM incubated for 72 hrs by MTT assay; assay type: functional, cell-based; settings: dose 5-25 µM
NIH3T3 [22] = experiment: Cytotoxicity against IGF-1 stimulated mouse NIH3T3 cells assessed as growth inhibition at 5 to 25 uM incubated for 72 hrs by MTT assay; assay type: functional, cell-based; settings: dose 5-25 µM
NIH3T3 [23] = experiment: Cytotoxicity against FGF stimulated mouse NIH3T3 cells assessed as decrease in cell number at 2 uM incubated for 72 hrs by MTT assay relative to control; assay type: functional; parameters: scale not given: the % may be the effect or the level left
NIH3T3 [24] = experiment: Cytotoxicity against serum stimulated mouse NIH3T3 cells assessed as decrease in cell number at 2 uM incubated for 72 hrs by MTT assay relative to control; assay type: functional; parameters: scale not given: the % may be the effect or the level left
NIH3T3 [25] = experiment: Cytotoxicity against serum stimulated mouse NIH3T3 cells assessed as inhibition of cell growth incubated for 72 hrs by MTT assay; assay type: functional, cell-based; settings: NIH3T3, 72 h
NIH3T3 [26] = experiment: Cytotoxicity against PDGF-BB stimulated mouse NIH3T3 cells assessed as growth inhibition incubated for 72 hrs by MTT assay; assay type: functional, cell-based; settings: NIH3T3, 72 h
NIH3T3 [27] = experiment: Cytotoxicity against FGF stimulated mouse NIH3T3 cells assessed as growth inhibition incubated for 72 hrs by MTT assay; assay type: functional, cell-based; settings: NIH3T3, 72 h
NIH3T3 [28] = experiment: Cytotoxicity against EGF stimulated mouse NIH3T3 cells assessed as growth inhibition incubated for 72 hrs by MTT assay; assay type: functional, cell-based; settings: NIH3T3, 72 h
NIH3T3 [29] = experiment: Cytotoxicity against IGF-1 stimulated mouse NIH3T3 cells assessed as growth inhibition incubated for 72 hrs by MTT assay; assay type: functional, cell-based; settings: NIH3T3, 72 h
NIH3T3 [30] = experiment: Induction of cell cycle arrest in mouse NIH3T3 cells by propidium iodide staining based flow cytometry analysis; assay type: toxicity
NIH3T3 [31] = experiment: as §1; assay type: cell-based

With `COc1ccc(S(=O)(=O)N(CCO)c2ccccc2CN(C)C/C=C/c2ccc(Cl)cc2)cc1` the Activity (NIH3T3 [1]) was “Dose-Dependent Effect and Tde”, the IC50 [2] was 1 µM and the inhibition (NIH3T3 [3]) was “Active”. For the same compound, the inhibition (NIH3T3 [4]) was “Active”, the inhibition (NIH3T3 [5]) was “Active” and the inhibition (NIH3T3 [6]) was “Active”. The inhibition (NIH3T3 [7]) was “Active”, the inhibition (NIH3T3 [8]) was “inactive” and the inhibition (NIH3T3 [9]) was “Active”. The IC50 [10] was 12 µM, the Activity (NIH3T3 [11]) was 79% and the Activity (NIH3T3 [12]) was 95%. For the same compound, the Activity (NIH3T3 [13]) was “Toxic”, the Activity (NIH3T3 [14]) was “Non-Toxic” and the Activity (NIH3T3 [15]) was “Toxic”. The Activity (NIH3T3 [16]) was “Non-Toxic”, the Activity (NIH3T3 [17]) was “Toxic” and the Activity (NIH3T3 [18]) was “Toxic”. For the same compound, the Activity (NIH3T3 [19]) was “Active”, the Activity (NIH3T3 [20]) was “Active” and the Activity (NIH3T3 [21]) was “Active”. For the same compound, the Activity (NIH3T3 [22]) was “Active”, the Activity (NIH3T3 [23]) was 35% and the Activity (NIH3T3 [24]) was 4%. It also gave an IC50 (NIH3T3 [25]) of 12 µM, an IC50 (NIH3T3 [26]) of 6 µM and an IC50 (NIH3T3 [27]) of 6 µM. The IC50 (NIH3T3 [28]) was 6 µM and the IC50 (NIH3T3 [29]) was 6 µM.

In the case of `COc1ccc(S(=O)(=O)Nc2ccccc2CN(C)C/C=C/c2ccc(Cl)cc2)cc1`, the Activity (NIH3T3 [30]) is reported as “Not Active”, the inhibition (NIH3T3 [9]) is reported as “inactive” and the inhibition (NIH3T3 [31]) is reported as “inactive”.
